# Experimental data as given in patent US6737383B1, “Herbicidal oxadiazolidines” (priority 1999, dated 2004).
# What was measured:
# [1] = tested on: bedstraw; assay: Test B pre/postemergence bedstraw; type: in vivo, Galium aparine
# In short: (§1)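 Test chemicals in a non-phytotoxic solvent mixture with surfactant were sprayed preemergence onto planted seeds and postemergence onto plants 2 to 18 cm tall (1- to 4-leaf stage). After twelve to sixteen days in a greenhouse, injury was visually rated against untreated controls from 0 (no effect) to 10 (complete control).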
# [2] = tested on: blackgrass; assay: Test B pre/postemergence blackgrass; type: in vivo, Alopecurus myosuroides
# In short: as §1
# [3] = tested on: surinam grass; assay: Test B pre/postemergence surinam grass; type: in vivo, Brachiaria decumbens
# In short: as §1
# [4] = tested on: corn; assay: Test B pre/postemergence corn; type: in vivo, Zea mays
# In short: as §1
# [5] = tested on: giant foxtail; assay: Test B pre/postemergence giant foxtail; type: in vivo, Setaria faberii
# In short: as §1
# [6] = tested on: morningglory; assay: Test B pre/postemergence morningglory; type: in vivo, Ipomoea hederacea
# In short: as §1
# [7] = tested on: pigweed; assay: Test B pre/postemergence pigweed; type: in vivo, Amaranthus retroflexus
# In short: as §1
# [8] = tested on: rape; assay: Test B pre/postemergence rape; type: in vivo, Brassica napus
# In short: as §1
# [9] = tested on: soybean; assay: Test B pre/postemergence soybean; type: in vivo, Glycine max
# In short: as §1
# [10] = tested on: sugar beet; assay: Test B pre/postemergence sugar beet; type: in vivo, Beta vulgaris
# In short: as §1
# [11] = tested on: velvetleaf; assay: Test B pre/postemergence velvetleaf; type: in vivo, Abutilon theophrasti
# In short: as §1
# [12] = tested on: purple nutsedge; assay: Test B pre/postemergence purple nutsedge; type: in vivo, Cyperus rotundus
# In short: as §1
# [13] = Postemergence, Rate 62 g/ha, scale 0 to 10, 0 is no effect, 10 is complete control
# [14] = Postemergence, Rate 250 g/ha, scale 0 to 10, 0 no effect, 10 complete control
# [15] = Preemergence, Rate 62 g/ha, scale 0 to 10 (0 no effect, 10 complete control)
# [16] = Preemergence, Rate 125 g/ha, scale 0 to 10 (0 no effect, 10 complete control)
# [17] = Preemergence, Rate 250 g/ha, scale of 0 to 10 where 0 is no effect and 10 is complete control
# [18] = Preemergence, Rate 500 g/ha, scale 0 (no effect) to 10 (complete control)
# [19] = Rate 125 g/ha, Postemergence, scale 0 to 10, 0 no effect, 10 complete control
# [20] = Rate 500 g/ha, Postemergence, scale 0 to 10, 0 no effect, 10 complete control
# [21] = Postemergence, Rate 125 g/ha, scale of 0 to 10 where 0 is no effect and 10 is complete control
# [22] = Preemergence, Rate 62 g/ha, scale of 0 to 10 where 0 is no effect and 10 is complete control
# [23] = Preemergence, Rate 125 g/ha, 0 is no effect, 10 is complete control
# [24] = Preemergence, Rate 250 g/ha, scale 0 to 10, 0 is no effect, 10 is complete control
# [25] = Preemergence, Rate 500 g/ha, scale 0 to 10 (0 no effect, 10 complete control)
# [26] = Rate 62 g/ha, Postemergence, scale of 0 to 10 where 0 is no effect and 10 is complete control
# [27] = Rate 250 g/ha, Postemergence, scale 0 to 10, 0 is no effect, 10 is complete control
# [28] = Rate 500 g/ha, Postemergence, scale 0 to 10
smiles,measurement,setting,value
Cc1ccccc1Cn1c(=O)on(C(=O)N(c2ccc(F)cc2)C(C)C)c1=O [Compound 88],Bedstraw plant response rating,[1]; [13],3
same,Bedstraw plant response rating,[1]; [14],9
same,Bedstraw plant response rating,[1]; [15],0
same,"Plant response rating, Bedstraw",[1]; [16],0
same,"Plant response rating, Bedstraw",[1]; [17],0
same,Bedstraw plant response rating,[1]; [18],2
same,Bedstraw plant response rating,[1]; [19],8
same,Bedstraw plant response rating,[1]; [20],9
same,Blackgrass plant response rating,[2]; [13],2
same,Blackgrass plant response rating,[2]; [21],5
same,Blackgrass plant response rating,[2]; [14],6
same,Blackgrass plant response rating,[2]; [15],1
same,"Plant response rating, Blackgrass",[2]; [16],4
same,"Plant response rating, Blackgrass",[2]; [17],4
same,Blackgrass plant response rating,[2]; [18],6
same,Blackgrass plant response rating,[2]; [20],6
same,B. signalgrass plant response rating,[3]; [13],0
same,B. signalgrass plant response rating,[3]; [14],0
same,B. signalgrass plant response rating,[3]; [15],0
same,"Plant response rating, B. signalgrass",[3]; [16],2
same,"Plant response rating, B. signalgrass",[3]; [17],2
same,B. signalgrass plant response rating,[3]; [18],5
same,B. signalgrass plant response rating,[3]; [19],2
same,B. signalgrass plant response rating,"[3]; Rate 500 g/ha, Postemergence, scale of 0 to 10 where 0 is no effect and 10 is complete control",2
same,Corn plant response rating,[4]; [13],0
same,Corn plant response rating,[4]; [21],0
same,Corn plant response rating,[4]; [14],0
same,Corn plant response rating,[4]; [15],0
same,"Plant response rating, Corn",[4]; [16],0
same,"Plant response rating, Corn",[4]; [17],0
same,Corn plant response rating,[4]; [18],0
same,Corn plant response rating,[4]; [20],0
same,Giant foxtail plant response rating,[5]; [13],0
same,Giant foxtail plant response rating,[5]; [21],3
same,Giant foxtail plant response rating,[5]; [14],3
same,Giant foxtail plant response rating,[5]; [15],4
same,"Plant response rating, Giant foxtail",[5]; [16],6
same,"Plant response rating, Giant foxtail",[5]; [17],10
same,Giant foxtail plant response rating,[5]; [18],10
same,Giant foxtail plant response rating,[5]; [20],3
same,Morningglory plant response rating,[6]; [13],8
same,Morningglory plant response rating,[6]; [21],10
same,Morningglory plant response rating,[6]; [14],10
same,Morningglory plant response rating,[6]; [15],0
same,"Plant response rating, Morningglory",[6]; [16],0
same,"Plant response rating, Morningglory",[6]; [17],0
same,Morningglory plant response rating,[6]; [18],0
same,Morningglory plant response rating,[6]; [20],10
same,Redroot pigweed plant response rating,[7]; [13],3
same,Redroot pigweed plant response rating,[7]; [21],3
same,Redroot pigweed plant response rating,[7]; [14],3
same,Redroot pigweed plant response rating,[7]; [15],9
same,"Plant response rating, Redroot pigweed",[7]; [16],10
same,"Plant response rating, Redroot pigweed",[7]; [17],10
same,Redroot pigweed plant response rating,[7]; [18],10
same,Redroot pigweed plant response rating,[7]; [20],5
same,Rape plant response rating,[8]; [13],0
same,Rape plant response rating,[8]; [21],0
same,Rape plant response rating,[8]; [14],0
same,Rape plant response rating,[8]; [15],0
same,"Plant response rating, Rape",[8]; [16],0
same,"Plant response rating, Rape",[8]; [17],0
same,Rape plant response rating,[8]; [18],0
same,Rape plant response rating,[8]; [20],3
same,Soybean plant response rating,[9]; [13],1
same,Soybean plant response rating,[9]; [21],1
same,Soybean plant response rating,[9]; [14],1
same,Soybean plant response rating,[9]; [15],0
same,"Plant response rating, Soybean",[9]; [16],0
same,"Plant response rating, Soybean",[9]; [17],0
same,Soybean plant response rating,[9]; [18],2
same,Soybean plant response rating,[9]; [20],1
same,Sugarbeets plant response rating,[10]; [13],3
same,Sugarbeets plant response rating,[10]; [21],5
same,Sugarbeets plant response rating,[10]; [14],7
same,Sugarbeets plant response rating,[10]; [15],2
same,"Plant response rating, Sugarbeets",[10]; [16],3
same,"Plant response rating, Sugarbeets",[10]; [17],6
same,Sugarbeets plant response rating,[10]; [18],8
same,Sugarbeets plant response rating,[10]; [20],7
same,Velvetleaf plant response rating,[11]; [13],0
same,Velvetleaf plant response rating,[11]; [21],0
same,Velvetleaf plant response rating,[11]; [14],0
same,Velvetleaf plant response rating,[11]; [15],0
same,"Plant response rating, Velvetleaf",[11]; [16],0
same,"Plant response rating, Velvetleaf",[11]; [17],0
same,Velvetleaf plant response rating,[11]; [18],2
same,Velvetleaf plant response rating,[11]; [20],0
same,Nutsedge plant response rating,[12]; [13],0
same,Nutsedge plant response rating,[12]; [21],0
same,Nutsedge plant response rating,[12]; [14],0
same,Nutsedge plant response rating,[12]; [15],0
same,"Plant response rating, Nutsedge",[12]; [16],0
same,"Plant response rating, Nutsedge",[12]; [17],0
same,Nutsedge plant response rating,[12]; [18],0
same,Nutsedge plant response rating,[12]; [20],0
CC(C)N(C(=O)n1oc(=O)n(CC(F)(F)F)c1=O)c1ccc(F)cc1 [Compound 163],Bedstraw plant response rating,[1]; [21],4
same,Bedstraw plant response rating,[1]; [22],0
same,Bedstraw plant response rating (0 to 10 scale),[1]; [23],0
same,Bedstraw plant response rating,[1]; [24],4
same,Bedstraw plant response rating,[1]; [25],4
same,Bedstraw plant response rating,[1]; [26],0
same,"Plant response rating, Bedstraw",[1]; [27],7
same,Bedstraw plant response rating,[1]; [28],9
same,Blackgrass plant response rating,[2]; [21],4
same,Blackgrass plant response rating,[2]; [22],7
same,Blackgrass plant response rating (0 to 10 scale),[2]; [23],7
same,Blackgrass plant response rating,[2]; [24],10
same,Blackgrass plant response rating,[2]; [25],10
same,Blackgrass plant response rating,[2]; [26],2
same,"Plant response rating, Blackgrass",[2]; [27],6
same,Blackgrass plant response rating,[2]; [28],8
same,B. signalgrass plant response rating,[3]; [21],2
same,B. signalgrass plant response rating,[3]; [22],0
same,B. signalgrass plant response rating (0 to 10 scale),[3]; [23],2
same,B. signalgrass plant response rating,[3]; [24],2
same,B. signalgrass plant response rating,[3]; [25],2
same,B. signalgrass plant response rating,[3]; [26],0
same,"Plant response rating, B. signalgrass",[3]; [27],5
same,B. signalgrass plant response rating,[3]; [20],6
same,Corn plant response rating,[4]; [21],0
same,Corn plant response rating,[4]; [22],0
same,Corn plant response rating (0 to 10 scale),[4]; [23],0
same,Corn plant response rating,[4]; [24],0
same,Corn plant response rating,[4]; [25],2
same,Corn plant response rating,[4]; [26],0
same,"Plant response rating, Corn",[4]; [27],0
same,Corn plant response rating,[4]; [28],0
same,Giant foxtail plant response rating,[5]; [21],7
same,Giant foxtail plant response rating,[5]; [22],8
same,Giant foxtail plant response rating (0 to 10 scale),[5]; [23],8
same,Giant foxtail plant response rating,[5]; [24],8
same,Giant foxtail plant response rating,[5]; [25],10
same,Giant foxtail plant response rating,[5]; [26],6
same,"Plant response rating, Giant foxtail",[5]; [27],8
same,Giant foxtail plant response rating,[5]; [28],8
same,Morningglory plant response rating,[6]; [21],2
same,Morningglory plant response rating,[6]; [22],0
same,Morningglory plant response rating (0 to 10 scale),[6]; [23],0
same,Morningglory plant response rating,[6]; [24],0
same,Morningglory plant response rating,[6]; [25],0
same,Morningglory plant response rating,[6]; [26],2
same,"Plant response rating, Morningglory",[6]; [27],5
same,Morningglory plant response rating,[6]; [28],8
same,Redroot pigweed plant response rating,[7]; [21],2
same,Redroot pigweed plant response rating,[7]; [24],6
same,Redroot pigweed plant response rating,[7]; [25],9
same,Redroot pigweed plant response rating,[7]; [26],0
same,"Plant response rating, Redroot pigweed",[7]; [27],3
same,Redroot pigweed plant response rating,[7]; [28],3
same,Rape plant response rating,[8]; [21],0
same,Rape plant response rating,[8]; [22],0
same,Rape plant response rating (0 to 10 scale),[8]; [23],0
same,Rape plant response rating,[8]; [24],7
same,Rape plant response rating,[8]; [25],8
same,Rape plant response rating,[8]; [26],0
same,"Plant response rating, Rape",[8]; [27],2
same,Rape plant response rating,[8]; [28],4
same,Soybean plant response rating,[9]; [21],2
same,Soybean plant response rating,[9]; [22],0
same,Soybean plant response rating (0 to 10 scale),[9]; [23],0
same,Soybean plant response rating,[9]; [24],0
same,Soybean plant response rating,[9]; [25],0
same,Soybean plant response rating,[9]; [26],2
same,"Plant response rating, Soybean",[9]; [27],3
same,Soybean plant response rating,[9]; [28],3
same,Sugarbeets plant response rating,[10]; [21],0
same,Sugarbeets plant response rating,[10]; [22],0
same,Sugarbeets plant response rating (0 to 10 scale),[10]; [23],3
same,Sugarbeets plant response rating,[10]; [24],4
same,Sugarbeets plant response rating,[10]; [25],6
same,Sugarbeets plant response rating,[10]; [26],0
same,"Plant response rating, Sugarbeets",[10]; [27],4
same,Sugarbeets plant response rating,[10]; [28],5
same,Velvetleaf plant response rating,[11]; [22],0
same,Velvetleaf plant response rating (0 to 10 scale),[11]; [23],2
same,Velvetleaf plant response rating,[11]; [24],5
same,Velvetleaf plant response rating,[11]; [25],5
same,"Plant response rating, Velvetleaf",[11]; [27],6
same,Velvetleaf plant response rating,[11]; [28],6
same,Nutsedge plant response rating,[12]; [21],0
same,Nutsedge plant response rating,[12]; [22],0
same,Nutsedge plant response rating (0 to 10 scale),[12]; [23],0
same,Nutsedge plant response rating,[12]; [24],0
same,Nutsedge plant response rating,[12]; [25],0
same,Nutsedge plant response rating,[12]; [26],0
same,"Plant response rating, Nutsedge",[12]; [27],0
same,Nutsedge plant response rating,[12]; [28],3
